Results taken from paper PMC12123601, “Light-Induced, Lysine-Targeting Irreversible Covalent Inhibition of the Human Oxygen Sensing Hydroxylase Factor Inhibiting HIF (FIH)” (Journal of the American Chemical Society, 2025).
Several values for one entry are separate records, joined by “and”; a condition that tells them apart may be missing. Equal values may be shown once. Read-outs that look alike come from different tables or passages of the source.

Molecular target: T1, FIH^WT (Homo sapiens, UniProt Q9NWT6)
T1 construct: pET28a vectors encoding for full-length FIH with an N-terminal His6 tag; His6 (N); host or cells: Escherichia coli BL21
T1 sequence (Q9NWT6 whole entry): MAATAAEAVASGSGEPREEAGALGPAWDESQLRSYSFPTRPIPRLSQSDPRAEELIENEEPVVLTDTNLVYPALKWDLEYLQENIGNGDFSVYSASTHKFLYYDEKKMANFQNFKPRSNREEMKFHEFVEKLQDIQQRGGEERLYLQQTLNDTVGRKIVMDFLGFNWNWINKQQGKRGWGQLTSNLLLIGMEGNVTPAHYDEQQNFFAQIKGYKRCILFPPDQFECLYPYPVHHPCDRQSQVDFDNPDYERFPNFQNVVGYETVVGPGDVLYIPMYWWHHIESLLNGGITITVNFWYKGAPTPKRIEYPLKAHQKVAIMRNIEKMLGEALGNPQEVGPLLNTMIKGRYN
Assay: Affinity-based fluorescence polarization (FP) assay with FIH WT, without and with 365 nm irradiation
Conditions: read-out: Binding affinity to FIH^WT: Ki
Description: We also performed a reported affinity-based fluorescence polarization (FP) assay (Figure S6) , under light activation to measure the binding affinity of NBA-ZG-2291 to FIH (Figure A). […] These observations are consistent with the intact protein MS analyzes. We also evaluated the binding affinities of two negative controls to FIH, which were designed not to covalently react with Lys106.
4 (A) Light-induced click conjugation between NBA-ZG-2291 and FIH protein. (B) Light-induced binding affinity of NBA-ZG-2291 to FIH^ WT . (C) Light-induced binding affinity of NBA-ZG-2291 to FIH^ K106A . […] TEXT PRINTED IN THE PICTURE: (B) NBA-ZG-2291: Binding affinity to FIH^WT: Ki (nM): 414 ± 14 (Irradtion time (min): 0); Binding affinity to FIH^WT: Ki (nM): 74.1 ± 1.6 (Irradtion time (min): 15); Binding affinity to FIH^WT: Ki (nM): 46.7 ± 1.4 (Irradtion time (min): 30); Binding affinity to FIH^WT: Ki (nM): 33.2 ± 0.6 (Irradtion time (min): 60); Binding affinity to FIH^WT: Ki (nM): 30.2 ± 2.0 (Irradtion time (min): 90); Binding affinity to FIH^WT: Ki (nM): 32.1 ± 0.7 (Irradtion time (min): 120) | (B) Neg-1: Binding affinity to FIH^WT: Ki (nM): 423 ± 7 (Irradtion time (min): 0); Binding affinity to FIH^WT: Ki (nM): 408 ± 30 (Irradtion time (min): 15); Binding affinity to FIH^WT: Ki (nM): 459 ± 32 (Irradtion time (min): 30); Binding affinity to FIH^WT: Ki (nM): 427 ± 17 (Irradtion time (min): 60); Binding affinity to FIH^WT: Ki (nM): 396 ± 29 (Irradtion time (min): 90); Binding affinity to FIH^WT: Ki (nM): 428 ± 15 (Irradtion time (min): 120) | (B) Neg-2: Binding affinity to FIH^WT: Ki (nM): 742 ± 65 (Irradtion time (min): 0); Binding affinity to FIH^WT: Ki (nM): 799 ± 69 (Irradtion time (min): 15); Binding affinity to FIH^WT: Ki (nM): 758 ± 13 (Irradtion time (min): 30); Binding affinity to FIH^WT: Ki (nM): 744 ± 30 (Irradtion time (min): 60); Binding affinity to FIH^WT: Ki (nM): 788 ± 36 (Irradtion time (min): 90); Binding affinity to FIH^WT: Ki (nM): 786 ± 35 (Irradtion time (min): 120) | (C) NBA-ZG-2291: Binding affinity to FIH^K106A: Ki (nM): 442 ± 12 (Irradtion time (min): 0); Binding affinity to FIH^K106A: Ki (nM): 427 ± 22 (Irradtion time (min): 15); Binding affinity to FIH^K106A: Ki (nM): 426 ± 7 (Irradtion time (min): 30); Binding affinity to FIH^K106A: Ki (nM): 420 ± 11 (Irradtion time (min): 60); Binding affinity to FIH^K106A: Ki (nM): 418 ± 5 (Irradtion time (min): 90); Binding affinity to FIH^K106A: Ki (nM): 424 ± 12 (Irradtion time (min): 120) | (C) Neg-1: Binding affinity to FIH^K106A: Ki (nM): 271 ± 14 (Irradtion time (min): 0); Binding affinity to FIH^K106A: Ki (nM): 275 ± 15 (Irradtion time (min): 15); Binding affinity to FIH^K106A: Ki (nM): 268 ± 25 (Irradtion time (min): 30); Binding affinity to FIH^K106A: Ki (nM): 266 ± 22 (Irradtion time (min): 60); Binding affinity to FIH^K106A: Ki (nM): 264 ± 41 (Irradtion time (min): 90); Binding affinity to FIH^K106A: Ki (nM): 270 ± 3 (Irradtion time (min): 120) | (C) Neg-2: Binding affinity to FIH^K106A: Ki (nM): 567 ± 37 (Irradtion time (min): 0); Binding affinity to FIH^K106A: Ki (nM): 548 ± 61 (Irradtion time (min): 15); Binding affinity to FIH^K106A: Ki (nM): 521 ± 50 (Irradtion time (min): 30); Binding affinity to FIH^K106A: Ki (nM): 627 ± 17 (Irradtion time (min): 60); Binding affinity to FIH^K106A: Ki (nM): 565 ± 10 (Irradtion time (min): 90); Binding affinity to FIH^K106A: Ki (nM): 552 ± 38 (Irradtion time (min): 120) […]
3. Experimental procedures
3.1 Fluorescence polarization (FP) assays1 with FIHWT and FIHK106A pET28a vectors encoding for full-length FIH with an N-terminal His6 tag or for FIH (K106A) with an N-terminal His6 tag were purchased from Nanjing Zoonbio Biotechnology. Both the FIHWT and FIHK106A protein were expressed from the respective plasmid in Escherichia coli BL21 at 20 °C for 16 h. E. coli cells were lysed and the lysate were clarified by centrifugation. His6- […]

- Ki (irradiation time 0 min): 414 ± 14 nM
- Ki (irradiation time 15 min): 74.1 ± 1.6 nM
- Ki (irradiation time 30 min): ~40 nM and 46.7 nM
- Ki (irradiation time 60 min): 33.2 ± 0.6 nM
- Ki (irradiation time 90 min): 30.2 ± 2 nM
- Ki (irradiation time 120 min): 32.1 ± 0.7 nM
Structure (SMILES): O=C(O)CNC(=O)c1ncc(-c2cc(-c3ccc(CO)c([N+](=O)[O-])c3)no2)cc1O [NBA-ZG-2291]
